Experimental data reported in patent publication US8313914B2, “Compositions and methods for modulation of cell migration” (Angstrom Pharmaceuticals, Inc., priority 2009, dated 2012).
“Also recorded” adds a separate entry of the source. No end group written: not given here.

Key:
CD44 [1] = molecular target: T1, CD44 (Homo sapiens, UniProt P16070); test: Anti-CD44 (DF1485) immunoblot analysis of Å6CbioXL polypeptides and Å6-BSA; format: binding; conditions: SKOV3 lysates
T1 construct: endogenous in cells; host or cells: SKOV3
T1 sequence (P16070 21-742): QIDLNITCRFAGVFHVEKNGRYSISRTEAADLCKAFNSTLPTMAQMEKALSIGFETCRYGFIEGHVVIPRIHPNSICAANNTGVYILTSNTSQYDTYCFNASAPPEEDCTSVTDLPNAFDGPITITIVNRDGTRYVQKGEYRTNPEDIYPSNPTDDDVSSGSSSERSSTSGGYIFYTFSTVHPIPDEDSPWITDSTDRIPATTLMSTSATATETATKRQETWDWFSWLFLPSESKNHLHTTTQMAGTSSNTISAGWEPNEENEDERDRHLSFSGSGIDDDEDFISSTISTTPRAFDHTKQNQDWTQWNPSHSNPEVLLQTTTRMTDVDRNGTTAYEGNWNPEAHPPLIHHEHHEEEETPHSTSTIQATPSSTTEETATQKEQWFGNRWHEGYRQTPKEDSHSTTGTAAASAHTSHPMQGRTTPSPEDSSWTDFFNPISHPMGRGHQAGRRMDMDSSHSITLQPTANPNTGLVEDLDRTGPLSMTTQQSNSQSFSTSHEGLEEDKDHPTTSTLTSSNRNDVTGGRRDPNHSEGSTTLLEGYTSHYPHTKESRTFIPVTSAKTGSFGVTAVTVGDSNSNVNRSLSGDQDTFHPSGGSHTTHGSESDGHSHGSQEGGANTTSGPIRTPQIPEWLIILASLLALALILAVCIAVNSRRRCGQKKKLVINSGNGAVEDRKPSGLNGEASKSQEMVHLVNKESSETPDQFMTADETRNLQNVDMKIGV
Description: In FIG. 7 30 μg aliquots of Å6CbioXL and control (ConXL) SKOV3 lysates, as well as 2 μg aliquots of Å6-crosslinked BSA (Å6-BSA) and BSA, were subjected to immunoblot analysis using the DF1485 anti-CD44 antibody (Santa Cruz Biotech). The DF1485 blots were stained with HRP-conjugated sheep anti-Mouse IgG; heavy and light chain specific (GE Health Sciences). The rabbit anti-Å6 blot was stained with HRP-conjugated donkey anti-rabbit IgG; heavy and light chain specific (Jackson Immunoresearch). Stained bands were visualized by the ECL-plus chemiluminescence reagent (GE Health Sciences) and exposure to Hyperfilm ECL film (GE). In panel 1, anti-CD44 produced bands in the Å6CbioXL (A lane) and control (C) lane. […] In addition, 2 μg aliquots of the Å6CbioXL and ConXL lysates were concurrently blotted with HRP-streptavidin to identify polypeptides labeled with Å6Cbio, and shown in panel 2. 2 μg of Å6-BSA and BSA were also blotted with Rb anti-Å6 to confirm the presence of Å6 on the Å6-BSA, as shown in the third panel of FIG. 7.

CD44 [2] = molecular target: T1, CD44; test: Immunoprecipitation of Å6Cbio-crosslinked SKOV3 polypeptides with anti-CD44, HRP-SA blotting; format: binding; conditions: SKOV3 cells, 100 μM Å6Cbiotin, BS3 crosslinking, anti-CD44 DF1485
Description: In FIGS. 1 and 2 SKOV3 cells were incubated with or without 100 μM Å6Cbiotin (Å6CbioXL and ConXL, respectively) for 30 min at 4° C. The cells were then crosslinked with 5 mM bis(sulfosuccinimidyl) suberate (Sulfo-DSS or BS^3) for 30 min at 4° C. and Triton X-100 lysates generated. The lysates were pre-cleared by incubating with Protein A-agarose for 2 hr at room temperature. Aliquots representing 100 μg of the cleared lysates were then incubated overnight at room temperature with 20 μL of Protein A-agarose plus 2 μg of anti-Tenascin R (TnR; E-18, Santa Cruz Biotech.), anti-Tenascin C (TnC; 300-3, Santa Cruz Biotech.), anti-CD44 (DF1485, Santa Cruz Biotech.), anti-Plexin-A1 (P1 A1; H-60, Santa Cruz Biotech.) or murine IgG1 (Sigma Chem. Co.). After washing 5 times with lysis buffer, the immunoprecipitated polypeptides were eluted from the Protein A-agarose by boiling in SDS-PAGE sample buffer. The eluted material and 2 μg aliquots of the starting material were then subjected to SDS-PAGE, transfer to PVDF membranes and blotting with chemiluminescent horseradish peroxidase (HRP)-conjugated streptavidin (HRP-SA).
In FIG. 3 SKOV3 cells were incubated with or without 100 μM Å6Cbiotin (Å6CbioXL and control, respectively) for 30 minutes at 4° C. The cells were then crosslinked with 5 mM BS3 for 30 min at 4° C. […]

CD44 on SKOV3 cells [3] = molecular target: T2, CD44 on SKOV3 cells (Homo sapiens, UniProt P16070); test: FACs analysis of anti-CD44 (DF1485) binding to SKOV3 cells in the presence of Å6; format: cell-based; conditions: pre-incubation with Å6 on ice 10 or 30 min, FACS MnI
T2 construct: endogenous in cells; host or cells: SKOV3
T2 sequence (P16070 21-742): as above
Description: In FIG. 4 SKOV3 cells were detached from their culture flasks by brief trypsinization, washed twice with DPBS and incubated on ice with the indicated concentrations of Å6 for 10 min (exp. 1) or 30 min (exp. 2). Anti-CD44 (DF1485; Santa Cruz Biotech.) or its isotype control were then added to final concentrations of 1 μg/ml (exp. 1) or 1 and 0.5 μg/ml (exp. 2) and the cells incubated for 1 hr on ice. The cells were washed once and incubated with FITC-conjugated donkey anti-mouse IgG (H+L) for 30 minutes on ice and then subjected to FACS analysis with a Beckman Coulter Epics XL-MCL cytofluorimeter. Data analysis was performed using the Coulter Epics software. Note: Data are presented as mean fluorescence intensities (MnI) obtained with the MnI of the negative control in each experiment adjusted to <0.5 during data collection. […] Similar CD44 expression in ovarian cancer lines using different anti-CD44 antibodies is assessed in FIG. 5, for which the MnI values are summarized in FIG. 6.

A2780 cells [4] = test: Boyden chamber chemotaxis of A2780 cells; format: cell-based; conditions: 10 ng/ml VEGF in NIH3T3-conditioned media, overnight
Description: (§1) A2780 (FIG. 10a) and SKOV3 (FIG. 10b) cells were incubated with the indicated concentrations of Å6 peptide for 30 min at 37° C. Aliquots representing 6,000 cells were placed on quadruplicate, CnI-coated filters (8 μm pores) in Boyden chambers and the cells allowed to migrate overnight in response to 10 ng/ml VEGF in NIH3T3-conditioned media containing the indicated concentrations of Å6. Upon completion of migration, the apical surfaces of the membranes were wiped clean and the migrating cells on the basal surface were stained with Geimsa stain and the cells present in representative fields of the membranes counted. Data represent the averages+/−standard deviations obtained from the replicate filters. […] This provides further confirmation that CD44 is the target for the Å6 peptide.

SKOV3 cells [5] = test: Boyden chamber migration of SKOV3 cells induced by NIH3T3-CM/VEGF; format: cell-based; conditions: for Effective concentration for cell migration inhibition, lower end / Effective concentration for cell migration inhibition, upper end: SKOV3 migration
Description: as §1
SKOV3 cells are harvested by trypsinization and washed once with RPMI-0.5% BSA. Next, the cells are re-suspended in RPMI+0.5% BSA@6E4/mL (6000 cells/100 μL). The peptide is pre-treated with 500 μL of cells added to 500 μL peptide NASAPPEE (SEQ ID NO: 3) (2× concentration, final conc, at 100, 10, 1, 0.1, 0.01, 0.001 uM) and the mixture incubated 30 minutes at 37° C., under 5% CO2. The Boyden chamber is assembled by: Placing in the bottom chambers: 220 μL of serum/BSA free DMEM or NIH3T3CM+10 ng/ml VEGF or NIH3T3CM+10 ng/ml VEGF+peptide. Place 8 μm filters on the top of the bottom chambers. The 8 μm filters are coated with 1 mg/ml collagen I at 4° C. overnight, washed with PBS twice, air dry before use. Add 200 μL of cells with or without peptide pretreatment to the top of Boyden chamber. Note that the peptide is in both top and bottom chambers. Cells migrate overnight at 37° C., under 5% CO2 in incubator. Next, Boyden chambers are disassembled the and filters collected. The cells on the filters after collection are treated with −20° C. methanol for 3 minutes at room temperature and stained with 30% Geimsa for 7 minutes at room temperature, and washed with water twice. The filters are mounted on slides, air dried and the cells counted.
Cell numbers were obtained by counting the cells in four fields of filters using a 40× objective. The cells migrating into the bottom chambers were also counted as follows: a) 200 μL fluid in the bottom chamber was transferred to a well of 96-well plate; b) The plate was centrifuged at 1200 rpm for 5 minutes; c) 180 μL of supernatant was removed; d) The cell pellet was resuspended with the remaining 20 μL fluid and the cells counted using a hemocytometer. […] This compares favorably to the Å6 peptide which is effective between 5 μM and 100 nM.

SKOV3 cells [6] = test: Adhesion of SKOV3 cells to hyaluronic acid; format: cell-based
Description: In FIG. 11 SKOV3 cells were cultured overnight with or without 10 μM Å6 or 100 ng/ml PMA. The cells were then detached, washed and loaded with 20 μg/ml CFDA-SE for 30 min at 37° C. After washing, the cells were resuspended in PBS containing 10% FCS and triplicate aliquots representing 100,000 cells incubated for 30 min at room temperature with no additions, 1 or 10 uM Å6 or with 20 ng/ml IM7, a blocking anti-CD44 rat monoclonal antibody. The cells were then placed into microtiter wells that had been coated with 50 μl, of 1 mg/mL HA overnight and blocked for 30 min with 10% FCS. The cells were allowed to adhere at room temperature for 30 minutes after which, the wells were decanted and washed 3 times. The fluorescence in each well was assessed (excit./emiss.: 460/536 nm) and the mean fluorescence values (+/standard deviation) of the triplicate determinations calculated. […] The control experiment with IM7 (graphs on far right) indicates inhibition of SKOV3 binding to HA in the presence of this anti-CD44, which indicates a role for CD44 in binding HA.

A2780 cells [7] = test: Adhesion of A2780 cells to hyaluronic acid; format: cell-based; conditions: immobilized HA; 1 or 10 μM Å6
Description: In FIG. 12 A2780 cells were cultured overnight with or without 10 μM Å6 or 100 ng/ml PMA. The cells were then detached, washed and loaded with 20 μg/ml CFDA-SE for 30 min at 37° C. After washing, the cells were resuspended in PBS containing 10% FCS and triplicate aliquots representing 100,000 cells incubated for 30 min at room temperature with no additions, 1 or 10 μM Å6 or with 20 ng/ml IM7, a blocking anti-CD44 rat monoclonal antibody. The cells were then placed into microtiter wells that had been coated with 50 ul of 1 mg/ml HA overnight and blocked for 30 min with 10% FCS. The cells were allowed to adhere at room temperature for 30 min after which, the wells were decanted and washed 3 times. The fluorescence in each well was assessed (excit./emiss.: 460/536 nm) and the mean fluorescence values (+/standard deviation) of the triplicate determinations calculated.

CD44 [8] = molecular target: T1, CD44; test: Dimerization of CD44 in SKOV3 cells, anti-CD44 B-F24 immunoblot; format: cell-based; conditions: SKOV3 cultured 20 hr with 1 or 10 μM Å6, non-reducing
Description: In FIG. 13 SKOV3 cells were cultured for 20 hr with no additions, 1 or 10 μM Å6 or 100 ng/ml PMA. Triton X-100 lysates were generated and further solubilized in SDS-PAGE sample buffer under non-reducing conditions. Aliquots representing 7.5 μg of cellular protein were subjected to SDS-PAGE followed by immunoblot analysis with the anti-CD44 murine monoclonal B-F24. The presence of stained higher molecular weight bands can be indicative of CD44 dimers and/or oligomers.

CD44 on SKOV3 cells [9] = molecular target: T2, CD44 on SKOV3 cells; test: FACs analysis of IM7 binding to SKOV3 cells in the presence of Å6; format: cell-based; conditions: IM7 1 μg/ml, 4° C.
Description: In FIGS. 14a and 14b SKOV3 cells were incubated with the indicated concentrations of Å6 for 30 min at 4° C. IM7 (1 μg/ml) was then added and allowed to bind for 30 min at 4° C., after which the cells were washed and incubated with FITC-donkey anti-rat IgG for 30 min at 4° C. The cells were washed once and then subjected to FACs analysis.

B16 melanoma cells = test: B16 melanoma lung metastasis model; format: in vivo, C57BL/6J mice; conditions: about 1×10^5 melanoma cells injected in the tail vein
Description: The B16 melanoma metastasis is well known in the art. A typical protocol for assessing the inhibitory effect of a compound on metastasis is described below. Such a protocol was followed to assess the effect of Å6 on metastasis.
Briefly, B16 melanoma cells can be cultured in RPMI-1640 with 10% fetal bovine serum at 37° C. in an atmosphere of 95% air and 5% CO2. C57BL/6J mice of six to eight weeks can be purchased from commercial suppliers. For the lung metastasis model, about 1×10^5 melanoma cells suspended in 100 μl saline were injected in the tail vein in the presence or absence of Å6. Administration of the Å6 peptide inhibited the lung metastasis by 50% or more.

“Å6CbioXL: SKOV3 cells incubated with 100 μM Å6Cbiotin and crosslinked with BS3; lysate polypeptides labeled with Å6Cbio (KPSSPPEE; also: biotin label (Cbio) at an unstated position, BS3 crosslinked to cell polypeptides)” was tested, and the “Effect on binding of anti-CD44 to CD44 (band intensity)” value (CD44 [1]) was “reduces the binding of anti-CD44 to CD44”.

With Ac-KPSSPPEE-Am (Ac-KPSSPPEE-NH2) [Å6] the “Target identified by immunoprecipitation of crosslinked biotinylated peptide” value (CD44 [2]) was “targets CD44; also recorded: CD44 as the target”, the “Effect on binding of DF1485 anti-CD44 to SKOV3 cells” value (CD44 on SKOV3 cells [3]) was “inhibits the binding of DF1485 anti-CD44 to SKOV3 cells” and the “Effect on migration of A2780 cells” value (A2780 cells [4]) was “essentially unaffected”. The “Effect on migration of SKOV3 cells” value (SKOV3 cells [5]; 10 ng/ml VEGF in NIH3T3-conditioned media, overnight) was “strong inhibition”, the “Effective concentration for cell migration inhibition, lower end” value (SKOV3 cells [5]) was 100 nM and the “Effective concentration for cell migration inhibition, upper end” value (SKOV3 cells [5]) was 5 µM. For the same substance, the “Effect of a 10-fold increase in peptide concentration on SKOV3 binding to HA” value (SKOV3 cells [6]; 1 vs 10 μM Å6) was “little effect”, the “Effect on SKOV3 binding to HA” value (SKOV3 cells [6]; immobilized HA, 1 or 10 μM Å6, 20 ng/ml IM7) was “enhanced” and the “Effect on A2780 binding to HA” value (A2780 cells [7]) was “does not substantially modulate”. The “Formation of higher molecular weight CD44 bands (dimers/oligomers)” value (CD44 [8]) was “higher molecular weight bands are formed”, the “Effect on IM7 antibody binding to SKOV3 cells” value (CD44 on SKOV3 cells [9]) was “increase in antibody binding with increasing concentration” and the “Inhibition of lung metastasis” value (B16 melanoma cells) was ≥ 50%.

NASAPPEE was tested, and the “Effective concentration for cell migration inhibition, lower end” value (SKOV3 cells [5]) was 1 nM and the “Effective concentration for cell migration inhibition, upper end” value (SKOV3 cells [5]) was 100 µM.
